In one assay the target is T1, p38 alpha (Homo sapiens, UniProt Q16539).
T1 construct: purchased Invitrogen PV3304
Description: P38 alpha enzyme inhibition assay (Alphascreen kinase activity assay). It counts as biochemical. The note with it: 100 pM p38 alpha, 2 hours preincubation at 25° C., 250 μM ATP, ATF-2 fusion protein; read-out: p38α inhibition. Summed up: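 Phosphorylation of ATF-2 fusion protein (0.3 μg/ml) read by AlphaScreen with anti-phospho-ATF2 antibody after 1 h kinase reaction at 25 °C, initiated by 250 μM ATP. Compounds first incubated 2 h at 25 °C with 100 pM p38 alpha in pH 7.5 HEPES buffer, 1% DMSO. IC50 derived from concentration-response data.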
For orientation: Bead proximity is the source of the signal in Alpha formats.

The subject of assay [1] is Peripheral Blood Mononuclear Cells (PBMCs), TNFα release. The assay is described as follows: LPS-stimulated PBMC TNFα release assay. It counts as cell-based. The note with it: human PBMC, LPS (10 ng/ml), 18 h, compound 1 h before LPS; read-out: LPS-stimulated PBMC TNFα release inhibition. The method in brief:
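TNFα in cell-free supernatant, read on MSD plates, gave % inhibition curves and IC50 (≥3 separate experiments). Healthy-donor PBMCs had 1 h compound exposure at 37 °C in 1% FBS medium, then 18 h stimulation with 10 ng/ml LPS, after a 3 h serum-free rest.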

Data on 18 molecules can be found in patent publication US10364245B2 (CHIESI FARMACEUTICI S.p.A., priority 2017, dated 2019).

Where a name gives a salt, the structure may show the parent alone.

T1 sequence (Q16539 whole entry): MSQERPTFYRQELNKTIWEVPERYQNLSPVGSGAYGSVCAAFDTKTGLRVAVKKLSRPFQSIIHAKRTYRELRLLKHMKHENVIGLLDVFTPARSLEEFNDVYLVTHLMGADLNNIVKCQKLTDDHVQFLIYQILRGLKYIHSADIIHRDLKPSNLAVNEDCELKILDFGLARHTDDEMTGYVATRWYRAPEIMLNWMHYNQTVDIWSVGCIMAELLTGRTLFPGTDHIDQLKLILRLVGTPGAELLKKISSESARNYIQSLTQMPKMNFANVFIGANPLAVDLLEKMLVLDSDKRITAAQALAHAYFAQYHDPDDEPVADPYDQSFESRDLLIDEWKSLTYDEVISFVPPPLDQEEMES

`CCN(C)CCNC(=O)c1cc(NC(=O)N[C@H]2CC[C@@H](Oc3ccc4nnc(N(CC)CC)n4c3)c3ccccc32)cc(C(C)(C)C)n1` [Example 205, 6-(tert-Butyl)-4-(3-((1S,4R)-4-((3-(diethylamino)-[1,2,4]triazolo[4,3-a]pyridin-6-yl)oxy)-1,2,3,4-tetra-hydronaphthalen-1-yl)ureido)-N-(2-(ethyl(methyl)amino)-ethyl)picolinamide formate salt]: the IC50 at p38 alpha was less than 1 nM; in assay [1] it was 1 to 5 nM.

As to `CC[C@H](C)c1nnc2ccc(O[C@@H]3CC[C@H](NC(=O)Nc4cc(C(C)(C)C)nc(C(=O)NCCN(C)C)n4)c4ccccc43)cn12` [Example 100, 4-(tert-butyl)-6-(3-((1S,4R)-4-((3-((S)-sec-butyl)-[1,2,4]triazolo[4,3-a]pyridin-6-yl)oxy)-1,2,3,4-tetrahydronaphthalen-1-yl)ureido)-N-(2-(dimethylamino)ethyl)-pyrimidine-2-carboxamide], the IC50 on p38 alpha is less than 1 nM; in assay [1], 1 to 5 nM.

Turning to `COCCN(CCOC)Cc1nc(NC(=O)N[C@H]2CC[C@@H](Oc3ccc4nnc(C(C)(C)C)n4c3)c3ccccc32)cc(C(C)(C)C)n1` [Example 86, 1-(2-((bis(2-methoxyethyl)amino)methyl)-6-(tert-butyl)pyrimidin-4-yl)-3-((1S,4R)-4-((3-(tert-butyl)-[1,2,4]triazolo[4,3-a]pyridin-6-yl)oxy)-1,2,3,4-tetrahydronaphthalen-1-yl)urea], the IC50 on p38 alpha was 1 to 10 nM; in assay [1], more than 5 nM.

As for `CC(C)(C)c1cc(NC(=O)N[C@H]2CC[C@@H](Oc3ccc4nnc(C(C)(C)C)n4c3)c3ccccc32)cc(C(=O)NCCN2CCCOCC2)n1` [Example 189, N-(2-(1,4-oxazepan-4-yl)ethyl)-6-(tert-butyl)-4-(3-((1S,4R)-4-((3-(tert-butyl)-[1,2,4]triazolo[4,3-a]pyridin-6-yl)oxy)-1,2,3,4-tetrahydronaphthalen-1-yl)ureido)picolinamide], the figures for the IC50 (on p38 alpha; in assay [1]) were 1 to 10 nM and 1 to 5 nM, respectively.

Regarding `CC(C)(C)c1cc(NC(=O)N[C@H]2CC[C@@H](Oc3ccc4nnc(C(C)(C)C)n4c3)c3ccccc32)nc(C(=O)NCCN2CCOCC2)n1` [Example 68, 4-(tert-butyl)-6-(3-((1S,4R)-4-((3-(tert-butyl)-[1,2,4]triazolo[4,3-a]pyridin-6-yl)oxy)-1,2,3,4-tetrahydronaphthalen-1-yl)ureido)-N-(2-morpholinoethyl)pyrimidine-2-carboxamide], the IC50 on p38 alpha was less than 1 nM; in assay [1], 1 to 5 nM.

Turning to `CC(C)(C)c1cc(NC(=O)N[C@H]2CC[C@@H](Oc3ccc4nnc(C(C)(C)C)n4c3)c3ccccc32)cc(C(=O)NCCCN2CCOCC2)n1` [Example 187, 6-(tert-butyl)-4-(3-((1S,4R)-4-((3-(tert-butyl)-[1,2,4]triazolo[4,3-a]pyridin-6-yl)oxy)-1,2,3,4-tetrahydronaphthalen-1-yl)ureido)-N-(3-morpholinopropyl)-picolinamide], the IC50 on p38 alpha was 1 to 10 nM; in assay [1], 1 to 5 nM.

Regarding `CN(CCO)CCNC(=O)c1nc(NC(=O)N[C@H]2CC[C@@H](Oc3ccc4nnc(C5(C)CC5)n4c3)c3ccccc32)cc(C(C)(C)C)n1` [Example 145, 4-(tert-butyl)-N-(2-((2-hydroxyethyl)(methyl)-amino)ethyl)-6-(3-((1S,4R)-4-((3-(1-methylcyclopropyl)-[1,2,4]triazolo[4,3-a]pyridin-6-yl)oxy)-1,2,3,4-tetrahydronaphthalen-1-yl)ureido)pyrimidine-2-carboxamide], the IC50 on p38 alpha was less than 1 nM; in assay [1] it was more than 5 nM.

Take `CCC(CC)c1nnc2ccc(O[C@@H]3CC[C@H](NC(=O)Nc4cc(C(C)(C)C)nc(C(=O)NCCO)n4)c4ccccc43)cn12` [Example 72, 4-(tert-butyl)-N-(2-hydroxyethyl)-6-(3-((1S,4R)-4-((3-(pentan-3-yl)-[1,2,4]triazolo[4,3-a]pyridin-6-yl)oxy)-1,2,3,4-tetrahydronaphthalen-1-yl)ureido)pyrimidine-2-carboxamide]: the values for the IC50 (at p38 alpha; in assay [1]) were less than 1 nM and 1 to 5 nM, respectively.

As to `CCN(CC)c1nnc2ccc(O[C@@H]3CC[C@H](NC(=O)Nc4cc(C(=O)NCC(C)(C)N(C)C)nc(C(C)(C)C)c4)c4ccccc43)cn12` [Example 204, 6-(tert-Butyl)-4-(3-((1S,4R)-4-((3-(diethylamino)-[1,2,4]triazolo[4,3-a]pyridin-6-yl)oxy)-1,2,3,4-tetrahydronaphthalen-1-yl)ureido)-N-(2-(dimethylamino)-2-methylpropyl)-picolinamide formate salt], the results for the IC50 (at p38 alpha; in assay [1]) were less than 1 nM and 1 to 5 nM, respectively.

Regarding `CC(C)c1nnc2ccc(O[C@@H]3CC[C@H](NC(=O)Nc4cc(C(C)(C)C)nc(C(=O)NCCN5CCOCC5)n4)c4ccccc43)cn12` [Example 66, 4-(tert-butyl)-6-(3-((1S,4R)-4-((3-isopropyl-[1,2,4]triazolo[4,3-a]pyridin-6-yl)oxy)-1,2,3,4-tetrahydronaphthalen-1-yl)ureido)-N-(2-morpholinoethyl)pyrimidine-2-carboxamide], the IC50 on p38 alpha was 1 to 10 nM; in assay [1], more than 5 nM.

For the molecule `CO[C@@H](C)c1nnc2ccc(O[C@@H]3CC[C@H](NC(=O)Nc4cc(C(C)(C)C)nc(C(=O)NCCN(C)C)n4)c4ccccc43)cn12` [Example 56, 4-(tert-Butyl)-N-(2-(dimethylamino)ethyl)-6-(3-((1S,4R)-4-((3-((S)-1-methoxyethyl)-[1,2,4]triazolo[4,3-a]pyridin-6-yl)oxy)-1,2,3,4-tetrahydronaphthalene-1-yl)ureido)pyrimidin-2-carboxamide], the IC50 on p38 alpha was 1 to 10 nM; in assay [1] it was more than 5 nM.

Take `CCN(C)CCNC(=O)c1cc(NC(=O)N[C@H]2CC[C@@H](Oc3ccc4nnc(C(C)(C)C)n4c3)c3ccccc32)cc(C(C)(C)C)n1` [Example 191, 6-(tert-butyl)-4-(3-((1S,4R)-4-((3-(tert-butyl)-[1,2,4]triazolo[4,3-a]pyridin-6-yl)oxy)-1,2,3,4-tetrahydronaphthalen-1-yl)ureido)-N-(2-(ethyl(methyl)amino)-ethyl)picolinamide]: the figures for the IC50 (at p38 alpha; in assay [1]) were 1 to 10 nM and 1 to 5 nM, respectively.

For the molecule `COCC(C)(C)c1nnc2ccc(O[C@@H]3CC[C@H](NC(=O)Nc4cc(C(C)(C)C)nc(C(=O)NCCN5CCOCC5)n4)c4ccccc43)cn12` [Example 97, 4-(tert-butyl)-6-(3-((1S,4R)-4-((3-(1-methoxy-2-methylpropan-2-yl)-[1,2,4]triazolo[4,3-a]pyridin-6-yl)oxy)-1,2,3,4-tetrahydronaphthalen-1-yl)ureido)-N-(2-morpholinoethyl)-pyrimidine-2-carboxamide], the IC50 was less than 1 nM on p38 alpha and more than 5 nM in assay [1].

Regarding `CCN(CC)c1nnc2ccc(O[C@@H]3CC[C@H](NC(=O)Nc4cc(C(C)(C)C)nc(C(=O)NCCN(C)C)n4)c4ccccc43)cn12` [Example 142, 4-(tert-butyl)-6-(3-((1S,4R)-4-((3-(diethylamino)-[1,2,4]triazolo[4,3-a]pyridin-6-yl)oxy)-1,2,3,4-tetrahydronaphthalen-1-yl)ureido)-N-(2-(dimethylamino)ethyl)-pyrimidine-2-carboxamide], the results for the IC50 (on p38 alpha; in assay [1]) were less than 1 nM and 1 to 5 nM, respectively.

Regarding `COC1CN(CCNC(=O)c2cc(NC(=O)N[C@H]3CC[C@@H](Oc4ccc5nnc(C(C)(C)C)n5c4)c4ccccc43)cc(C(C)(C)C)n2)C1` [Example 193, 6-(tert-butyl)-4-(3-((1S,4R)-4-((3-(tert-butyl)-[1,2,4]triazolo[4,3-a]pyridin-6-yl)oxy)-1,2,3,4-tetrahydronaphthalen-1-yl)ureido)-N-(2-(3-methoxyazetidin-1-yl)ethyl)picolinainide], the IC50 was 1 to 10 nM on p38 alpha and 1 to 5 nM in assay [1].

In the case of `CN1CCC[C@@]1(C)c1nnc2ccc(O[C@@H]3CC[C@H](NC(=O)Nc4cc(NS(C)(=O)=O)nc(C(C)(C)C)c4)c4ccccc43)cn12` [Example 212, N-(6-(tert-Butyl)-4-(3-((1S,4R)-4-((3-((S)-1,2-dimethylpyrrolidin-2-yl)-[1,2,4]triazolo[4,3-a]pyridin-6-yl)oxy)-1,2,3,4-tetrahydronaphthalen-1-yl)ureido)pyridin-2-yl)methanesulfonamide], the figures for the IC50 (on p38 alpha; in assay [1]) were less than 1 nM and 1 to 5 nM, respectively.

As to `C[C@@H]1CCC[C@H](C)N1c1nnc2ccc(O[C@@H]3CC[C@H](NC(=O)Nc4cc(C(C)(C)C)nc(C(=O)NCCN5CCOCC5)n4)c4ccccc43)cn12` [Example 18, 4-(tert-Butyl)-6-(3-((1S,4R)-4-((3-((2R,6S)-2,6-dimethylpiperidin-1-yl)-[1,2,4]triazolo[4,3-a]pyridin-6-yl)oxy)-1,2,3,4-tetrahydronaphthalen-1-yl)ureido)-N-(2-morpholinoethyl)pyrimidine-2-carboxamide], the results for the IC50 (at p38 alpha; in assay [1]) were less than 1 nM and 1 to 5 nM, respectively.

With `CN(CCO)CCNC(=O)c1cc(NC(=O)N[C@H]2CC[C@@H](Oc3ccc4nnc(C(C)(C)C)n4c3)c3ccccc32)cc(C(C)(C)C)n1` [Example 188, 6-(tert-butyl)-4-(3-((1S,4R)-4-((3-(tert-butyl)-[1,2,4]triazolo[4,3-a]pyridin-6-yl)oxy)-1,2,3,4-tetrahydronaphthalen-1-yl)ureido)-N-(2-((2-hydroxyethyl)(methyl)-amino)ethyl)picolinamide], the IC50 at p38 alpha is less than 1 nM; in assay [1], 1 to 5 nM.
